Where two headings read alike, the source gives them in different places. Non-standard residues stand in square brackets, D forms with d. Residues, ends and D or L forms follow the SMILES beside them. No end group written: not given here. d2Nal = N[C@H](Cc1ccc2ccccc2c1)C(=O)O; Inp = O=C(O)C1CCNCC1

A short description of series [1]: Combination GHRP and IGF-1 treatment of obese Zucker Diabetic Fatty (ZDF) rats. Particulars: for body weight gain: obese ZDF male rats, rhGH 500 μg/d. The format is in vivo, rat. As to the method: Ten lean ZDF rats served as an additional control group.
This GHRP was given by sc. injection twice daily, each dose of 100 μl therefore containing 50 μg/injection or 100 μg/day.
Recombinant human IGF-1 (rhIGF-1) at 13.8 mg/ml in acetate buffer was loaded into osmotic minipumps (Alza, Palo Alto, model 2ML4, pump rate 2.29 μl/hr for 28 days, fill volume 2064 μl). Other pumps were filled with acetate buffer. […] The delivered dose of rhIGF-1 was therefore 758 μg/day. Recombinant human growth hormone (rhGH, Lot R9092AX, Genentech Inc.) was diluted in sterile water to 2.5 g/l and a 100 μl injection given twice daily (250 μg/injection, or 500 μg/day).
The next day the osmotic pumps were inserted into rats. […] All rats not receiving rhIGF-1 containing pumps were implanted with pumps delivering the acetate buffer excipient.
On day 24 blood was withdrawn after a 4 hour fast and 1.5 U/kg of regular insulin was injected i.p. and a second blood sample taken 30 minutes later. The rats were then sacrificed using carbon dioxide, bled from the heart, and organs taken. Serum glucose was measured by standard automated procedures.
Data are presented as mean±standard error (SE) of the mean with 8 rats per group.

Series [2] deals with T1, rat pituitary cells (Rattus norvegicus, UniProt O08725). In short, it runs like this: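 Primary rat anterior pituitary cells, cultured three days in DME low glucose/10% FBS, were washed, pre-incubated twice for 15 min, then challenged 15 min with test compounds (DMSO ≤0.1%) at 37 °C. Released GH was measured by two-site ELISA; EC50 came from 4-parameter fits, mean of three to four independent determinations.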
T1 sequence (O08725 whole entry): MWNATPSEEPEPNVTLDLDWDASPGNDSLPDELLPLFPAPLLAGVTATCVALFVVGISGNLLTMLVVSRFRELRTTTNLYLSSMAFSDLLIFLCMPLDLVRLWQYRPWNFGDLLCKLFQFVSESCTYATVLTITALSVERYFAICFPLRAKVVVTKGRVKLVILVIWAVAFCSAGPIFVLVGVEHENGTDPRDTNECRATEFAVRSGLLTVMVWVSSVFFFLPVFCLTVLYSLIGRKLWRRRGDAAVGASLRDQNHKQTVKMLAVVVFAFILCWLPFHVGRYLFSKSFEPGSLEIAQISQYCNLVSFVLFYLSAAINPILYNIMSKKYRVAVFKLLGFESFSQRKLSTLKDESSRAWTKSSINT

Series [3] concerns growth hormone secretion. The series is described as follows: GHRP induced growth hormone secretion, intravenous administration (Rat IV). The format is in vivo. Particulars: iv injection, serum GH 10 min after injection. An outline of the steps:
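Female Sprague Dawley rats (24-30 days, 50-90 g) under intraperitoneal pentobarbitone received graded intravenous tail-vein peptide doses in pH 5.0 sodium acetate/mannitol buffer 20 min post-anaesthesia. Blood by cardiac puncture 10 min after dosing; serum GH measured by rat GH ELISA in duplicate.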

Series [4] in a line: Combination GHRP and IGF-1 treatment of normal rats (7 days). The format is in vivo, rat. Particulars: for body weight gain (in words): 7 days, twice daily sc injections, normal adult female rats, GHRH 300, GHRPs 50, L-692,585 150 μg/dose. How it is done:
The rats were weighed on the day of surgery and randomized into 12 groups of 5/group using a grouping program.
The GH secretagogues were given by sc. injection twice daily, each dose of 100 μl. […] Recombinant human IGF-1 (rhIGF-1) at 2.5 mg/ml in acetate buffer was loaded into osmotic minipumps (Alza, Palo Alto, model 2ML1, pump rate 10.16 μl/hr for 7 days, fill volume 2086 μl). Other pumps were filled with acetate buffer. […] The delivered dose of rhIGF-1 was therefore 610 μg/day.
The next day the osmotic pumps were inserted into rats. […] All rats not receiving rhIGF-1 containing pumps were implanted with pumps delivering the acetate buffer excipient. […] The treatment groups were;
The rats were sacrificed using carbon dioxide, bled from the heart and organs taken. Serum chemistries were measured by standard automated procedures.

The target in series [5] is T1, rat pituitary cells. The experiment in a line: Rat “pit” cell challenges: combinations with GHRP-6/GHRH, desensitization, somatostatin suppression, GHRP antagonist. The format is cell-based. Particulars: for GH response compared with control / GH release after sequential 15 min incubations with fresh compound (desensitization): 100 nM; for GH release in combination with GHRH: GHRP 100 nM plus GHRH 10 or 100 nM; for GH release in combination with GHRP-6: both at 100 nM; for GH release in the presence of 20 nM somatostatin: coincubation with 20 nM somatostatin; for GH release after sequential 15 min incubations with fresh compound (desensitization): three sequential 15 min incubations.
Experimental: Dispersion: Adult female Sprague-Dawley (160-180 g., Charles River) rats were group-caged in a 12:12 light:dark cycle with food and water available ad libitum. Pituitaries from ten rats were removed, the posterior pituitary discarded and the anterior pituitary placed in Hanks' Balanced Salt Solution (HBSS: without calcium chloride, w/o magnesium chloride, w/o magnesium sulfate; Gibco) containing 20 mM HEPES (Gibco) and 100 U/ml penicillin streptomycin (PS: JRH Biosciences). Under sterile conditions, pituitaries were rinsed twice then minced into small fragments with a razor blade. Fragments were resuspended in 5 ml of HBSS/HEPES containing 20 mg collagenase (Serva 17449) and 200 ml of 1 mg/ml DNase (Sigma) for a 40 min. incubation in a 37° C. gyrotory water bath shaker (New Brunswick Scientific Model G76; setting 10). After the incubation, fragments were triturated to yield small clumps and single cells. The cells were centrifuged 1000× g for 5 min, resuspended, counted and plated at a final cell concentration of 100,000 cells/ml. Incubation media was DME low glucose media w/NaHCO3 (Gibco) containing 20 mM hepes, 100 U/ml PS and 10% FBS (Hyclone A-111-L). Cells were plated at 0.5 ml per well in 48 well plates (Falcon) and incubated at 37° C. in 5% C02 for three days. […] The highest concentration of DMSO in media was 0.1%. Stock solutions (1 mM) of rat GHRH, somatostatin (Sigma) and GHRP antagonist HwkWfK were made fresh in media and diluted appropriately. The media used in all challenges and washing steps was DME low glucose with 20 mM Hepes, 100 U/ml PS, 10% FBS. Media was warmed to 37° C. and gassed by placing it into the incubator prior to challenge. On day three, the media was discarded and fresh media (approximately 1 ml) added for the first of three washes. After the last wash, the plate was placed back in the incubator for a 15 min pre-incubation. Then cells were washed 2× (with warmed and gassed media) and fresh 0.5 ml media were added for the second 15 min. pre-incubation. After the second pre-incubation cells were washed 2× as above and 0.5 ml of control and test solutions were added for a final 15 min incubation. After this incubation, the media were removed for subsequent GH ELISA. GH ELISA: A two-site ELISA was used to determine rat GH concentration in the media. Briefly, goat anti-rat GH antibody (lot#19164-20) was used to coat Nunc immunoplates overnight. After blocking and washing, standard (rat GH reference preparation: Parlow) and challenge media is diluted 1:20 prior to GH assay were added for a 1 hr room temperature incubation. STATISTICS: The mean for each group was determined and analyzed by one-way analysis of variance with a post-hoc Student-Newman-Keuls. Significance is defined as P<0.05. The EC50 was calculated using a 4-parameter curve-fit program (Kaleidagraph). Three to four independent EC50s were used to derive the mean and SEM.

Series [6] concerns ACTH. The series is described as follows: ACTH release from pituitary cells (RIA). The format is cell-based, rat. How it is done:
Dispersion: Adult female Sprague-Dawley (160-180 g., Charles River) rats were group-caged in a 12:12 light:dark cycle with food and water available ad libitum. Pituitaries from ten rats were removed, the posterior pituitary discarded and the anterior pituitary placed in Hanks' Balanced Salt Solution (HBSS: without calcium chloride, w/o magnesium chloride, w/o magnesium sulfate; Gibco) containing 20 mM HEPES (Gibco) and 100 U/ml penicillin streptomycin (PS: JRH Biosciences). Under sterile conditions, pituitaries were rinsed twice then minced into small fragments with a razor blade. Fragments were resuspended in 5 ml of HBSS/HEPES containing 20 mg collagenase (Serva 17449) and […] of 1 mg/ml DNase (Sigma) for a 40 min. incubation in a 37° C. gyrotory water bath shaker (New Brunswick Scientific Model G76; setting 10). After the incubation, fragments were triturated to yield small clumps and single cells. The cells were centrifuged 1000× g for 5 min, resuspended, counted and plated at a final cell concentration of 100,000 cells/ml. Incubation media was DME low glucose media w/NaHCO3 (Gibco) containing 20 mM hepes, 100 U/ml PS and 10% FBS (Hyclone A-111-L). Cells were plated at 0.5 ml per well in 48 well plates (Falcon) and incubated at 37° C. in 5% C02 for three days. For challenges to determine release of other pituitary hormones cells were plated at 200,000 cells per ml with 2 ml per well of a Swell plate (Corning). Challenge: A (inip)bbFK-NH2 stock (or other GHRP) concentration of 1 mM was made in DMSO and diluted with warmed media approximately 30 min prior to use. The highest concentration of DMSO in media was 0.1%. […] STATISTICS: The mean for each group was determined and analyzed by one-way analysis of variance with a post-hoc Student-Newman-Keuls. […] The EC50 was calculated using a 4-parameter curve-fit program (Kaleidagraph). […] RIA of pituitary hormones: LH, FSH, TSH, and Prolactin were determined with commercially available kits from Amersham, and ACTH levels were determined by a RIA kit from ICN. […]

Series [7] in a line: GHRP induced dose dependent weight gain in rats (sc minipump infusion, 14 days). The format is in vivo, rat. How it is done: Rat GHRH (1-43) was dissolved in the same buffer at 25 g/l.
The next day these osmotic pumps were inserted into rats.
Serum chemistries were measured by standard automated procedures.

Where [8] appears, read: read-out: PIT Cell EC50, Table IV, formula III compounds, GH release, 15 min incubation.
The mark [9] stands for this setting: read-out: EC50 of the representative GH dose response, single representative experiment, 15 min exposure.
[10] abbreviates: read-out: mean EC50, mean ± SE of independent EC50s.
Setting [11] is: high dose (inip) b b F K-NH2 100 μg/day, GHRH 600 μg/day, 14 d infusion.
Setting [12] is: Day 2, GHRP 100 μg/d sc injection, rhIGF-1 758 μg/d pump.

As for `NCCCC[C@H](NC(=O)[C@H](Cc1ccccc1)NC(=O)[C@@H](Cc1ccc2ccccc2c1)NC(=O)[C@@H](Cc1ccc2ccccc2c1)NC(=O)C1CCNCC1)C(N)=O` (stereo in doubt) [(inip) b b F K amide, (inip)-DβNal-DβNal-Phe-Lys-amide], in series [1] (rat, in vivo), the blood glucose amounted to 542±37 mg %.

With `NC(=O)[C@H](Cc1ccccc1)NC(=O)[C@@H](Cc1ccc2ccccc2c1)NC(=O)[C@@H](Cc1ccc2ccccc2c1)NC(=O)C1CCNCC1` [(inip) b b F amide, (inip)-DβNal-DβNal-Phe-amide] (H-[Inp][d2Nal][d2Nal]F-NH2), in series [2] (setting [8]), the EC50 was determined as 0.28 nM. The “RAT IV ED50” value in series [3] (Table IV) turned out to be 1.7 µg. Moreover, the “body weight gain (in words)” value in series [4] is “significant body weight gain”. In series [4] (in 7 days, 50 μg/dose twice daily sc), the weight gain came out at 36 ± 8 g.

Take `NC(=O)CN(CCc1ccccc1)C(=O)[C@@H](Cc1ccc2ccccc2c1)NC(=O)[C@@H](Cc1ccc2ccccc2c1)NC(=O)C1CCNCC1` [(inip) b b feg amide, (inip)-DβNal-DβNal-(N-2-phenylethyl-Gly) amide]: in series [5], the “GH response compared with control” value is on record as “significantly greater than control”, the “GH release in combination with GHRH” value is “synergistic”, the “GH release in combination with GHRP-6” value is “not synergistic” and the “GH release in the presence of 20 nM somatostatin” value is “totally suppressed”. For the same compound, in series [5], the “GH release after sequential 15 min incubations with fresh compound (desensitization)” value is “markedly decreased”. Further, the “fold more potent than GHRP-6” value in series [2] (ratio of pit cell EC50s) was about 25 fold. Also, the EC50 in series [2] (setting [9]) came to 0.09 nM. The EC50 in series [2] (setting [10]) was 0.25 ± 0.19 nM. The “RAT IV ED50” value in series [3] (Table IV) was found to be 1 µg.

For `CN(C(=O)[C@@H](Cc1ccc2ccccc2c1)NC(=O)C1CCNCC1)[C@H](Cc1ccc2ccccc2c1)C(=O)NCCCCN` [(inip) b nmb bam, (inip)-DβNal-(N-Me-DβNal)-[N-(4-aminobutyl)] amide], in series [2] (setting [8]), the EC50 came out at 0.3 nM. Further, the “RAT IV ED50” value in series [3] (Table IV) is 1.67 µg. Besides, the “body weight gain (in words)” value in series [4] is on record as “significant body weight gain”.

Consider `O=C(N[C@H](Cc1ccc2ccccc2c1)C(=O)N[C@@H](CO)Cc1c[nH]c2ccccc12)C1CCNCC1` [(inip) b wol, (inip)-DβNal-(D-Tryptophanol)], for which, in series [5], the “GH response compared with control” value is listed as “significantly greater than control”, the “GH release in combination with GHRH” value is reported as “synergistic”, the “GH release in combination with GHRP-6” value is “not synergistic” and the “GH release in the presence of 20 nM somatostatin” value is “totally suppressed”. Also, the “GH release after sequential 15 min incubations with fresh compound (desensitization)” value in series [5] is “no significant release of GH”. In series [2] (setting [9]), the EC50 was 3.9 nM. Further, the EC50 in series [2] (setting [10]) was found to be 10.6 ± 6.2 nM. Moreover, the “RAT IV ED50” value in series [3] (Table V) stood at 0.8 µg.

Consider “CRF: corticotrophin releasing factor (SEEPPISLDLTFHLLREVLEMARAEQLAQQAHSNRKLMEII; ends and bridges not checked; UniProt P06850 154-194, looked up) [reference compound]”, for which the “rise in ACTH levels” value in series [6] came out at 3 fold.

As for “GHRH: Rat GHRH (1-43), growth hormone releasing hormone, positive control (HADAIFTSSYRRILGQLYARKLLHEIMNRQQGERNQEQRSRFN; Somatoliberin; UniProt P09916 31-73, looked up) [reference compound]”, in series [5], the “GH response compared with control” value is “mild GH response”. Also, in series [7] (14 d infusion), the epiphyseal plate width result is on record as “no statistically significant increase”; the “pituitary and kidney weight” value is recorded as “not affected”. Also, the “liver weight (in words)” value in series [7] (GHRH 600 μg/day, 14 d infusion) is “significantly increased”. Besides, the “heart weight compared to excipient” value in series [7] (high dose 100 μg/day, GHRH 600 μg/day) is given as “increased”. In series [7] (setting [11]), this compound came in with a spleen weight of 624 ± 23 mg and a thymus weight of 575 ± 39 mg. In addition, the “body weight gain compared to excipient” value in series [7] (sc minipump 14 days, (inip) b b F K-NH2 4, 20, 100 μg/d, GHRH 600 μg/d, 90 day old female rats) is “significant body weight and organ weight gain”. In series [4], the “body weight gain (in words)” value is “significant body weight gain”.

For the compound “rhGH: Recombinant human growth hormone (Lot R9092AX, Genentech Inc.)”, the body weight gain in series [1] (setting [12]) was determined as 13.6 ± 2.5 g. For the same compound, in series [1] (rat, in vivo), the blood glucose is reported as 725±30 mg %, the fasting blood glucose amounted to 504±38 mg % and the serum insulin is 48 ± 6 ng/mL.

Consider “rhIGF-1: Recombinant human insulin-like growth factor-1”, for which the body weight gain in series [1] (setting [12]) amounted to 21.5 ± 0.7 g. Also, the body weight gain in series [1] (day 24, GHRP 100 μg/d, rhIGF-1 758 μg/d) turned out to be 232 ± 2 g. In series [1] (rat, in vivo), the blood glucose worked out at 1774 mg % and the serum insulin turned out to be 8 ± 1 ng/mL.

In general, EC50 refers to the concentration at which the effect is half-maximal.

(Values after US7094869B2, “Low molecular weight peptidomimetic growth hormone secretagogues” (Genentech, Inc., priority 1994, dated 2006).)
